For one experiment, the target named is T1, human P2X2/3 receptor (Homo sapiens, UniProt P56373+Q9UBL9).
T1 construct: expressed in transfected cells; host or cells: CHO-K1
T1 sequence (Q9UBL9 1-471): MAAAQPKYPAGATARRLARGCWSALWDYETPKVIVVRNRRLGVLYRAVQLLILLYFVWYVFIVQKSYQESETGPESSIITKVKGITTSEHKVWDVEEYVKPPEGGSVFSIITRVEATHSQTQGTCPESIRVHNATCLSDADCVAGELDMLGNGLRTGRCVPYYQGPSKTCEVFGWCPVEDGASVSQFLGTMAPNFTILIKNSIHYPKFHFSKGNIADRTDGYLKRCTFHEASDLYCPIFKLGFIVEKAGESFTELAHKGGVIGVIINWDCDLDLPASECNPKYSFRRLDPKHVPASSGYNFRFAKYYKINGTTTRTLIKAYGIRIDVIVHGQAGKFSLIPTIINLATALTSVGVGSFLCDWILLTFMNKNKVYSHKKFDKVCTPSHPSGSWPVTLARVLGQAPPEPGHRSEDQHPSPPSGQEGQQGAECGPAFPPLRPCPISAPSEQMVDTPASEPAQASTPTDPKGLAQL
T1 sequence (P56373 1-397): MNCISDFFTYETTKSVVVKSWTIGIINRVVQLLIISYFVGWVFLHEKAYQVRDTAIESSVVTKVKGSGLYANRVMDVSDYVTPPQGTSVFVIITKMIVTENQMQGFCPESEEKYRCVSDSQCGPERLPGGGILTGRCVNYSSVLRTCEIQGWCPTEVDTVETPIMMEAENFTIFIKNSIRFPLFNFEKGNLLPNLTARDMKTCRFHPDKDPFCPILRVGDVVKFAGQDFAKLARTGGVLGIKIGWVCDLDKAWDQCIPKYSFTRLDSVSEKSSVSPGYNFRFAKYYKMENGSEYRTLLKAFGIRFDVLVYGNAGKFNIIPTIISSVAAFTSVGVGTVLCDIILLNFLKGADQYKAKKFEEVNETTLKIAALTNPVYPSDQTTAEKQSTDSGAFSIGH
The experiment can be described thus: P2X2/3 FLIPR (Fluorometric Imaging Plate Reader) assay. The class given is cell-based. The settings on record: CHO-K1 cells transfected with human P2X2/3; agonist α,β-meATP 5 μM; FLIPR calcium fluorescence; read-out: pKi P2X2/3 (converted). Here is the method: (§1) CHO-K1 cells were transfected with cloned rat P2X3 or human P2X2/3 receptor subunits and passaged in flasks. 18-24 hours before the FLIPR experiment, cells were released from their flasks, centrifuged, and resuspended in nutrient medium at 2.5×10^5 cells/ml. The cells were aliquoted into black-walled 96-well plates at a density of 50,000 cells/well and incubated overnight in 5% CO2 at 37° C. On the day of the experiment, cells were washed in FLIPR buffer (calcium- and magnesium-free Hank's balanced salt solution, 10 mM HEPES, 2 mM CaCl2, 2.5 mM probenecid; FB). Each well received 100 μl FB and 100 μl of the fluorescent dye Fluo-3 AM [2 μM final conc.]. After a 1 hour dye loading incubation at 37° C., the cells were washed 4 times with FB, and a final 75 μl/well FB was left in each well.
(§2) Test compounds (dissolved in DMSO at 10 mM and serially diluted with FB) or vehicle were added to each well (25 μl of a 4× solution) and allowed to equilibrate for 20 minutes at room temperature. The plates were then placed in the FLIPR and a baseline fluorescence measurement (excitation at 488 nm and emission at 510-570 nm) was obtained for 10 seconds before a 100 μl/well agonist or vehicle addition. The agonist was a 2× solution of α,β-meATP producing a final concentration of 1 μM (P2X3) or 5 μM (P2X2/3). Fluorescence was measured for an additional 2 minutes at 1 second intervals after agonist addition. A final addition of ionomycin (5 μM, final concentration) was made to each well of the FLIPR test plate to establish cell viability and maximum fluorescence of dye-bound cytosolic calcium. Peak fluorescence in response to the addition of α,β-meATP (in the absence and presence of test compounds) was measured and inhibition curves generated using nonlinear regression. PPADS, a standard P2X antagonist, was used as a positive control.

The target in another experiment is T2, rat P2X3 receptor (Rattus norvegicus, UniProt P49654).
T2 construct: expressed in transfected cells; host or cells: CHO-K1
T2 sequence (P49654 1-397): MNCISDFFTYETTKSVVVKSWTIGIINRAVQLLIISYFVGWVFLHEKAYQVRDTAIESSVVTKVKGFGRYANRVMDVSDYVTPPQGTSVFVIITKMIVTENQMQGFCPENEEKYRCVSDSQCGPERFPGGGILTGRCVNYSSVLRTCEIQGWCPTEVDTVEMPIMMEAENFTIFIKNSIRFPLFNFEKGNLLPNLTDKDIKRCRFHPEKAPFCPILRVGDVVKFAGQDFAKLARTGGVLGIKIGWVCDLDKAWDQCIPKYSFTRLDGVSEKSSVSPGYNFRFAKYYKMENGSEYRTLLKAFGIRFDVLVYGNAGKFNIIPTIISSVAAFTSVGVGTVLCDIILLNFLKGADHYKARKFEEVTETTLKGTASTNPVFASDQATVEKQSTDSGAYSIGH
The experiment can be described thus: P2X3 FLIPR (Fluorometric Imaging Plate Reader) assay. The class given is cell-based. Conditions: CHO-K1 cells transfected with rat P2X3; agonist α,β-meATP 1 μM; FLIPR calcium fluorescence; read-out: pKi P2X3 (converted). How it is done:
as §1, §2

Here are results for ten compounds from patent publication US8093275B2, “Oxazolone and pyrrolidinone-substituted pryidine amides as P2X3 and P2X2/3 antagonists” (Roche Palo Alto LLC, priority 2009, dated 2012).

In the case of `Cc1ccc(-c2cc(C(=O)NC(C)c3cnccn3)cc(N3C(=O)OC[C@H]3C(C)C)c2)cc1` (stereo partly drawn) [Compound 39, 5-((R)-4-Isopropyl-2-oxo-oxazolidin-3-yl)-4′-methyl-biphenyl-3-carboxylic acid (1-pyrazin-2-yl-ethyl)-amide], the Ki at human P2X2/3 receptor was 38 nM; on rat P2X3 receptor, 9.33 nM.

In the case of `CCC1COC(=O)N1c1cc(C(=O)NC(C)c2cnccn2)cc(-c2ccc(C)cn2)c1` (centres unmarked) [Compound 18, 3-(4-Ethyl-2-oxo-oxazolidin-3-yl)-5-(5-methyl-pyridin-2-yl)-N-(1-pyrazin-2-yl-ethyl)-benzamide], the Ki was 339 nM on human P2X2/3 receptor and 7.59 nM on rat P2X3 receptor.

For the compound `Cc1ccc(-c2cc(C(=O)NC(C)c3cnccn3)cc(-n3c(=O)oc4ccccc43)c2)nc1` (centres unmarked) [Compound 2, 3-(5-Methyl-pyridin-2-yl)-5-(2-oxo-benzooxazol-3-yl)-N-(1-pyrazin-2-yl-ethyl)-benzamide], the Ki at human P2X2/3 receptor is 28.2 nM; on rat P2X3 receptor it was 3.09 nM.

Turning to `Cc1ccc(-c2cc(C(=O)NCc3cnc(C)cn3)cc(-n3c(=O)oc4ccccc43)c2)cc1` [Compound 51, 4′-Methyl-5-(2-oxo-benzooxazol-3-yl)-biphenyl-3-carboxylic acid (5-methyl-pyrazin-2-ylmethyl)-amide], the figures for the Ki at human P2X2/3 receptor and on rat P2X3 receptor were 31.6 nM and 11 nM, respectively.

With `Cc1ccc(-c2cc(C(=O)NCc3ccc(C)nn3)cc(-n3c(=O)oc4ccccc43)c2)nc1` [Compound 13, N-(6-Methyl-pyridazin-3-ylmethyl)-3-(5-methyl-pyridin-2-yl)-5-(2-oxo-benzooxazol-3-yl)-benzamide], the Ki at human P2X2/3 receptor was 21.4 nM; at rat P2X3 receptor, 7.76 nM.

As for `Cc1ccc(-c2cc(C(=O)NCc3cnc(C)cn3)cc(N3C(=O)OCC34CC4)c2)nc1` [Compound 29, N-(5-Methyl-pyrazin-2-ylmethyl)-3-(5-methyl-pyridin-2-yl)-5-(5-oxo-6-oxa-4-aza-spiro[2.4]hept-4-yl)-benzamide], the Ki at human P2X2/3 receptor is 129 nM; on rat P2X3 receptor, 4.37 nM.

As to `Cc1ccc(-c2cc(C(=O)NC(C)c3cnccn3)cc(N3C(=O)OC[C@H]3C(C)C)c2)c(F)c1` (stereo partly drawn) [Compound 47, 2′-Fluoro-5-((R)-4-isopropyl-2-oxo-oxazolidin-3-yl)-4′-methyl-biphenyl-3-carboxylic acid (1-pyrazin-2-yl-ethyl)-amide], the values for the Ki at human P2X2/3 receptor and at rat P2X3 receptor were 44.7 nM and 12.6 nM, respectively.

Turning to `Cc1ccc(-c2cc(C(=O)NCc3cccnn3)cc(-n3c(=O)oc4ccccc43)c2)nc1` [Compound 14, 3-(5-Methyl-pyridin-2-yl)-5-(2-oxo-benzooxazol-3-yl)-N-pyridazin-3-ylmethyl-benzamide], the Ki is 263 nM at human P2X2/3 receptor and 8.51 nM on rat P2X3 receptor.

With `Cc1ccc(-c2cc(C(=O)NCc3ncc(C)cn3)cc(-n3c(=O)oc4ccccc43)c2)nc1` [Compound 32, 3-(5-Methyl-pyridin-2-yl)-N-(5-methyl-pyrimidin-2-ylmethyl)-5-(2-oxo-benzooxazol-3-yl)-benzamide], the Ki on human P2X2/3 receptor was 24.5 nM; on rat P2X3 receptor, 4.57 nM.

With `Cc1ccc(-c2cc(C(=O)NCc3cnc(C)cn3)cc(N3C(=O)OC[C@H]3C(C)C)c2)c(F)c1` [Compound 48, 2′-Fluoro-5-((R)-4-isopropyl-2-oxo-oxazolidin-3-yl)-4′-methyl-biphenyl-3-carboxylic acid (5-methyl-pyrazin-2-ylmethyl)-amide], the Ki on human P2X2/3 receptor is 38 nM; at rat P2X3 receptor, 13.2 nM.
